Structures are written as SMILES. Read-outs that look alike come from different tables or passages of the source.

The values below come from US10173971B2, “Picolinamides with fungicidal activity” (DOW AGROSCIENCES LLC, priority 2014, dated 2019).

One assay concerns Zymoseptoria tritici. Description: Fungicidal activity: leaf blotch of wheat (SEPTTR), wheat seedlings, booth sprayer to run-off or track spray. Format: in vivo. The note with it: for pest or weed control at 100 ppm: High-Volume Cereal Activity at 100 ppm; for pest or weed control at 121.5 g/ha: Low-Volume Cereal Activity at 121.5 g/H. On the procedure: All fungicides were evaluated using the aforementioned method for their activity vs. all target diseases. Wheat leaf blotch and brown rust activity were also evaluated using track spray applications, in which case the fungicides were formulated as EC formulations, containing 0.1% Trycol 5941 in the spray solutions. Wheat plants (variety Yuma) were grown from seed in a greenhouse in 50% mineral soil/50% soil-less Metro mix until the first leaf was fully emerged, with 7-10 seedlings per pot. These plants were inoculated with an aqueous spore suspension of Zymoseptoria tritici either prior to or after fungicide treatments. After inoculation the plants were kept in 100% relative humidity (one day in a dark dew chamber followed by two to three days in a lighted dew chamber at 20° C.) to permit spores to germinate and infect the leaf. The plants were then transferred to a greenhouse set at 20° C. for disease to develop. When disease symptoms were fully expressed on the 1st leaves of untreated plants, infection levels were assessed on a scale of 0 to 100 percent disease severity. Percent disease control was calculated using the ratio of disease severity on treated plants relative to untreated plants.

Another assay concerns Puccinia triticina. Description: Fungicidal activity: wheat brown rust (PUCCRT), wheat seedlings, booth sprayer to run-off or track spray. It is filed as in vivo. The note with it: for pest or weed control at 100 ppm: High-Volume Cereal Activity at 100 ppm; for pest or weed control at 121.5 g/ha: Low-Volume Cereal Activity at 121.5 g/H. The protocol:
All fungicides were evaluated using the aforementioned method for their activity vs. all target diseases. Wheat leaf blotch and brown rust activity were also evaluated using track spray applications, in which case the fungicides were formulated as EC formulations, containing 0.1% Trycol 5941 in the spray solutions. Wheat plants (variety Yuma) were grown from seed in a greenhouse in 50% mineral soil/50% soil-less Metro mix until the first leaf was fully emerged, with 7-10 seedlings per pot. These plants were inoculated with an aqueous spore suspension of Puccinia triticina either prior to or after fungicide treatments. […] The plants were then transferred to a greenhouse set at 24° C. for disease to develop. Fungicide formulation, application and disease assessment followed the procedures as described in the Example A.

Setting [1] is: 24 h, 1 Day Protectant, read-out: SEPTTR 1DP.
Where [2] appears, read: 3DC (Day Curative), read-out: SEPTTR 3DC.
[3] abbreviates: 24 h, 1 Day Protectant, read-out: PUCCRT 1DP.
Setting [4] is: 72 h, 3 Day Curative, read-out: PUCCRT 3DC.
[5] abbreviates: 72 h, 3 Day Curative, read-out: SEPTTR 3DC.
Where [6] appears, read: 3DC (Day Curative), read-out: PUCCRT 3DC.

In the case of `COc1ccnc(C(=O)N[C@@H](C)C(=O)O[C@@H](C)[C@H](Cc2ccc(C)cc2)c2ccccc2)c1O` [compound 128], the pest or weed control at 100 ppm with Zymoseptoria tritici (setting [1]) fell in the range of 80 to 100%; with Zymoseptoria tritici (setting [2]), 0 to 80%; in the assay on Puccinia triticina (setting [3]) it was 80 to 100%.

Take `COc1ccc(CC(Cc2ccc(OC)cc2)[C@H](C)OC(=O)[C@H](C)NC(=O)c2nccc(OC)c2OC(C)=O)cc1` [compound 272]: the pest or weed control at 121.5 g/ha in the assay on Zymoseptoria tritici (setting [1]) was 80 to 100%; in the assay with Puccinia triticina (setting [3]), 0 to 80%; in the assay on Puccinia triticina (setting [4]), 0 to 80%.

Turning to `COc1ccnc(C(=O)N[C@@H](C)C(=O)O[C@@H](C)[C@H](Cc2ccc(Cl)c(Cl)c2)c2ccccc2)c1OCOC(C)=O` [compound 218], the pest or weed control at 121.5 g/ha with Zymoseptoria tritici (setting [1]) is 80 to 100%; in the assay with Zymoseptoria tritici (setting [5]) it was 0 to 80%; in the assay with Puccinia triticina (setting [3]), 0 to 80%; with Puccinia triticina (setting [4]) it was 0 to 80%.

Consider `CCCOC[C@@H](Cc1ccccc1)[C@H](C)OC(=O)[C@H](C)NC(=O)c1nccc(OC)c1O` [compound 93], for which the pest or weed control at 100 ppm was in the range of 0 to 80% in the assay on Zymoseptoria tritici (setting [1]), 80 to 100% in the assay on Zymoseptoria tritici (setting [2]), 80 to 100% in the assay with Puccinia triticina (setting [3]) and 80 to 100% with Puccinia triticina (setting [6]).

On to `COc1ccnc(C(=O)N[C@@H](C)C(=O)O[C@@H](C)[C@@H](COCCC(C)C)Cc2ccccc2)c1OC(C)=O` [compound 248], for which the pest or weed control at 121.5 g/ha is 0 to 80% in the assay with Zymoseptoria tritici (setting [5]), 80 to 100% with Puccinia triticina (setting [3]) and 0 to 80% in the assay with Puccinia triticina (setting [4]).

Consider `CCCOC[C@@H](Cc1ccccc1)[C@H](C)OC(=O)C(COC)NC(=O)c1nccc(OC)c1O` (stereo partly shown) [compound 106], for which the pest or weed control at 100 ppm in the assay on Zymoseptoria tritici (setting [2]), in the assay with Puccinia triticina (setting [3]) and in the assay with Puccinia triticina (setting [6]) was 0 to 80% throughout.

Turning to `CCOCC(=O)OCOc1c(OC)ccnc1C(=O)N[C@@H](C)C(=O)O[C@@H](C)[C@@H](COC)Cc1ccc(F)cc1` [compound 237], the pest or weed control at 121.5 g/ha was in the range of 0 to 80% in the assay on Zymoseptoria tritici (setting [1]), 0 to 80% with Zymoseptoria tritici (setting [5]), 80 to 100% in the assay on Puccinia triticina (setting [3]) and 80 to 100% in the assay with Puccinia triticina (setting [4]).

For the compound `CCCOC[C@@H](Cc1ccccc1)[C@H](C)OC(=O)CNC(=O)c1nccc(OC)c1OCOC(C)=O` [compound 175], the pest or weed control at 121.5 g/ha in the assay on Zymoseptoria tritici (setting [5]) fell in the range of 0 to 80%; in the assay on Puccinia triticina (setting [3]), 80 to 100%; in the assay with Puccinia triticina (setting [4]) it was 80 to 100%.

Take `COc1ccnc(C(=O)N[C@H](C(=O)OC(C)C(Cc2ccccc2)Cc2ccccc2)C(C)C)c1OC(C)=O` (stereo partly shown) [compound 261]: the pest or weed control at 121.5 g/ha is 0 to 80% in the assay with Zymoseptoria tritici (setting [1]), 0 to 80% in the assay with Zymoseptoria tritici (setting [5]), 80 to 100% in the assay on Puccinia triticina (setting [3]) and 0 to 80% with Puccinia triticina (setting [4]).

For the compound `CC[C@H](CCCc1ccccc1)[C@@H](CC(C)C)[C@H](C)OC(=O)C(C)NC(=O)c1nccc(OC)c1O` (stereo partly shown) [compound 101], the pest or weed control at 100 ppm with Zymoseptoria tritici (setting [1]) lay in the range of 80 to 100%; in the assay on Puccinia triticina (setting [3]), 80 to 100%; in the assay with Puccinia triticina (setting [6]), 0 to 80%.

Take `CCCO[C@@H](CC)[C@@H](Cc1ccccc1)[C@H](C)OC(=O)[C@@H](C)NC(=O)c1nccc(OC)c1OCOC(C)=O` [compound 163]: the pest or weed control at 100 ppm lay in the range of 0 to 80% in the assay with Zymoseptoria tritici (setting [1]), 0 to 80% with Zymoseptoria tritici (setting [2]), 80 to 100% in the assay with Puccinia triticina (setting [3]) and 80 to 100% with Puccinia triticina (setting [6]).

In the case of `COc1ccnc(C(=O)N[C@@H](C)C(=O)O[C@@H](C)[C@H](Cc2ccccc2)C(C)(C)OCc2ccccc2)c1OC(C)=O` [compound 230], the pest or weed control at 121.5 g/ha lay within 80 to 100% in the assay with Zymoseptoria tritici (setting [1]), 80 to 100% with Zymoseptoria tritici (setting [5]), 80 to 100% in the assay on Puccinia triticina (setting [3]) and 0 to 80% in the assay with Puccinia triticina (setting [4]).

For `C=C[C@H](Cc1ccc(C(F)(F)F)cc1)[C@@H](Cc1ccc(F)cc1)[C@H](C)OC(=O)[C@H](COC)NC(=O)c1nccc(OC)c1OC(C)=O` [compound 178], the pest or weed control at 121.5 g/ha in the assay with Zymoseptoria tritici (setting [1]), in the assay with Zymoseptoria tritici (setting [5]), in the assay on Puccinia triticina (setting [3]) and in the assay on Puccinia triticina (setting [4]) was 0 to 80% throughout.

With `COc1cccc(CC(Cc2cccc(OC)c2)[C@H](C)OC(=O)[C@H](C)NC(=O)c2nccc(OC)c2O)c1` [compound 152], the pest or weed control at 100 ppm lay within 80 to 100% in the assay on Puccinia triticina (setting [3]) and 0 to 80% in the assay on Puccinia triticina (setting [6]).

In the case of `COc1ccnc(C(=O)N[C@@H](C)C(=O)O[C@@H](C)[C@H](CCC(C)C)c2ccccc2)c1OCOC(=O)C(C)C` [compound 214], the pest or weed control at 121.5 g/ha in the assay with Zymoseptoria tritici (setting [1]), in the assay on Zymoseptoria tritici (setting [5]), in the assay on Puccinia triticina (setting [3]) and in the assay with Puccinia triticina (setting [4]) was 80 to 100% in each case.

For `COc1ccnc(C(=O)N[C@@H](C)C(=O)OC(C)C(Cc2ccc(F)cc2)Cc2ccc(F)cc2)c1OC(C)=O` (stereo partly shown) [compound 264], the pest or weed control at 121.5 g/ha in the assay with Zymoseptoria tritici (setting [1]) and in the assay with Puccinia triticina (setting [3]) was 0 to 80% each time.

Turning to `CCOC[C@H](Oc1ccc(C)cc1)[C@@H](Cc1ccc(F)cc1)[C@H](C)OC(=O)[C@H](C)NC(=O)c1nccc(OC)c1OCOC(C)=O` [compound 177], the pest or weed control at 121.5 g/ha in the assay on Zymoseptoria tritici (setting [1]) lay within 80 to 100%; with Zymoseptoria tritici (setting [5]), 0 to 80%; in the assay on Puccinia triticina (setting [3]), 80 to 100%; with Puccinia triticina (setting [4]), 0 to 80%.

Regarding `COc1ccnc(C(=O)N[C@@H](C)C(=O)O[C@@H](C)[C@H](Cc2ccccc2)C(C)(C)OC)c1O` [compound 137], the pest or weed control at 100 ppm with Zymoseptoria tritici (setting [2]) and with Puccinia triticina (setting [6]) was 0 to 80% throughout.

As to `CC[C@H](Oc1ccccc1)[C@@H](Cc1ccccc1)[C@H](C)OC(=O)[C@H](C)NC(=O)c1nccc(OC)c1O` [compound 117], the pest or weed control at 100 ppm in the assay with Zymoseptoria tritici (setting [1]) lay within 80 to 100%; in the assay on Zymoseptoria tritici (setting [2]), 0 to 80%; in the assay with Puccinia triticina (setting [3]) it was 80 to 100%; in the assay with Puccinia triticina (setting [6]), 80 to 100%.

On to `COc1ccnc(C(=O)N[C@@H](C)C(=O)O[C@@H](C)[C@H](Cc2ccc3ccccc3c2)c2ccccc2)c1OCOC(=O)C(C)C` [compound 226], for which the pest or weed control at 121.5 g/ha in the assay on Zymoseptoria tritici (setting [1]), with Zymoseptoria tritici (setting [5]) and in the assay with Puccinia triticina (setting [3]) was 0 to 80% throughout.

On to `COc1ccnc(C(=O)N[C@@H](C)C(=O)O[C@@H](C)[C@H](Cc2ccccc2)C(C)C)c1O` [compound 122], for which, in the assay on Puccinia triticina (setting [3]), the pest or weed control at 100 ppm lay within 0 to 80%.

For the compound `CC[C@H](Cc1ccc(C(F)(F)F)cc1)[C@@H](Cc1ccc(F)cc1)[C@H](C)OC(=O)[C@H](C)NC(=O)c1nccc(OC)c1OC(C)=O` [compound 182], the pest or weed control at 121.5 g/ha with Puccinia triticina (setting [3]) and in the assay on Puccinia triticina (setting [4]) was 0 to 80% throughout.

Consider `COc1ccnc(C(=O)N[C@@H](C)C(=O)O[C@@H](C)[C@H](Cc2ccc(Cl)c(Cl)c2)c2ccccc2)c1OC(=O)C(C)C` [compound 217], for which the pest or weed control at 121.5 g/ha in the assay with Zymoseptoria tritici (setting [1]) and in the assay with Zymoseptoria tritici (setting [5]) was 0 to 80% throughout.

As to `CCCOC[C@@H](Cc1ccc(OC)cc1)[C@H](C)OC(=O)[C@H](C)NC(=O)c1nccc(OC)c1OCOC(C)=O` [compound 256], the pest or weed control at 121.5 g/ha with Puccinia triticina (setting [3]) and in the assay on Puccinia triticina (setting [4]) was 80 to 100% each time.

Regarding `C=C[C@H](Cc1ccc(C(F)(F)F)cc1)[C@@H](Cc1ccc(F)cc1)[C@H](C)OC(=O)[C@H](COC)NC(=O)c1nccc(OC)c1O` [compound 107], the pest or weed control at 100 ppm in the assay with Puccinia triticina (setting [3]) was in the range of 0 to 80%.

As to `CC[C@H](Cc1ccc(C(F)(F)F)cc1)[C@@H](Cc1ccc(F)cc1)[C@H](C)OC(=O)[C@H](COC)NC(=O)c1nccc(OC)c1O` [compound 110], the pest or weed control at 100 ppm in the assay on Puccinia triticina (setting [3]) was in the range of 80 to 100%.

With `COC(=O)[C@@H](Cc1ccccc1)[C@H](C)OC(=O)[C@H](C)NC(=O)c1nccc(OC)c1OC(C)=O` [compound 186], the pest or weed control at 121.5 g/ha with Zymoseptoria tritici (setting [1]) fell in the range of 0 to 80%.

Regarding `CCCOC[C@@H](Cc1ccccc1)[C@H](C)OC(=O)CNC(=O)c1nccc(OC)c1OC(C)=O` [compound 176], the pest or weed control at 121.5 g/ha in the assay with Puccinia triticina (setting [3]) is 80 to 100%; in the assay on Puccinia triticina (setting [4]), 0 to 80%.

As to `CC[C@H](Cc1ccc(C(F)(F)F)cc1)[C@@H](Cc1ccc(F)cc1)[C@H](C)OC(=O)CNC(=O)c1nccc(OC)c1OC(C)=O` [compound 183], the pest or weed control at 121.5 g/ha in the assay on Puccinia triticina (setting [3]) was in the range of 0 to 80%.

As to `COc1ccnc(C(=O)N[C@@H](C)C(=O)O[C@@H](C)[C@H](Cc2ccccc2)c2ccccc2)c1O` [compound 119], the pest or weed control at 100 ppm in the assay with Zymoseptoria tritici (setting [2]) is 0 to 80%.

As to `C=C[C@H](Cc1ccc(C(F)(F)F)cc1)[C@@H](Cc1ccc(F)cc1)[C@H](C)OC(=O)CNC(=O)c1nccc(OC)c1O` [compound 109], in the assay with Puccinia triticina (setting [3]), the pest or weed control at 100 ppm was in the range of 0 to 80%.
